# pIC50: −log10 of the molar value. Read-outs that look alike come from different tables or passages of the source.
# Assays:
# TEC = TEC (Homo sapiens, UniProt P42680); assay: SelectScreen kinase profiling; type: biochemical; details: average of duplicate
# KIT = KIT (Homo sapiens, UniProt P10721); assay: SelectScreen kinase profiling; type: biochemical; details: average of duplicate
# PTK6 (Brk) = PTK6 (Brk) (Homo sapiens, UniProt Q13882); assay: SelectScreen kinase profiling; type: biochemical; details: average of duplicate
# ERBB2 (HER2) = ERBB2 (HER2) (Homo sapiens, UniProt P04626); assay: SelectScreen kinase profiling; type: biochemical; details: average of duplicate
# EGFR (ErbB1) = EGFR (ErbB1) (Homo sapiens, UniProt P00533); assay: SelectScreen kinase profiling / Z′-Lyte kinase assay
# BLK = BLK (Homo sapiens, UniProt P51451); assay: AssayQuant kinact/Ki profiling, PhosphoSens CSox-based kinetic assay; type: biochemical; design: purchased ThermoFisher / Life Technologies SelectScreen PV3683
# TXK = TXK (Homo sapiens, UniProt P42681); assay: SelectScreen kinase profiling; type: biochemical; details: average of duplicate
# HCK = HCK (Homo sapiens, UniProt P08631); assay: AssayQuant kinact/Ki profiling, PhosphoSens CSox-based kinetic assay
# JAK3 = JAK3 (Homo sapiens, UniProt P52333); assay: SelectScreen kinase profiling / Z′-Lyte kinase assay
# PDGFRB (PDGFR beta) = PDGFRB (PDGFR beta) (Homo sapiens, UniProt P09619); assay: SelectScreen kinase profiling; type: biochemical; details: average of duplicate
# RIPK2 = RIPK2 (Homo sapiens, UniProt O43353); assay: SelectScreen kinase profiling; type: biochemical; details: average of duplicate
# [1] = target: MAP2K1 (MEK1) S218D S222D (Homo sapiens, UniProt Q02750, S218D/S222D); assay: SelectScreen kinase profiling; type: biochemical; details: average of duplicate
# TTK = TTK (Homo sapiens, UniProt P33981); assay: SelectScreen kinase profiling; type: biochemical; details: average of duplicate
# BTK-NanoLuc fusion = target: T1, BTK-NanoLuc fusion (Homo sapiens, UniProt Q06187); assay: NanoBRET cellular engagement of BTK; type: cell-based; details: for pIC50: HEK293 cells
# T1 construct: host or cells: HEK293
# Method: NanoBRET Experiments: HEK293 cells were transfected with the BTK-NanoLuc fusion vector (Promega, #N2501) according to the manufacturer’s protocol. After […]
# Promega, #N2501) for 30 minutes. After an additional 30, 60, or 90 minutes the NanoBRET complete substrate plus inhibitor solution (3X solution in Opti-MEM I reduced serum medium, no phenol red, Promega, #N2501) was added to each well.
# After 5-10 minutes, the BRET ratio was measured using BMG Labtech CLARIOstar with preloaded filters for donor 450nm/80nm BP (band pass) and acceptor 610nm LP (long
# MAP2K5 (MEK5) = MAP2K5 (MEK5) (Homo sapiens, UniProt Q13163); assay: SelectScreen kinase profiling; type: biochemical; details: average of duplicate
# ITK = target: T2, ITK (Homo sapiens, UniProt Q08881); assay: AssayQuant kinact/Ki profiling, PhosphoSens CSox-based kinetic assay
# T2 sequence (Q08881 1-620): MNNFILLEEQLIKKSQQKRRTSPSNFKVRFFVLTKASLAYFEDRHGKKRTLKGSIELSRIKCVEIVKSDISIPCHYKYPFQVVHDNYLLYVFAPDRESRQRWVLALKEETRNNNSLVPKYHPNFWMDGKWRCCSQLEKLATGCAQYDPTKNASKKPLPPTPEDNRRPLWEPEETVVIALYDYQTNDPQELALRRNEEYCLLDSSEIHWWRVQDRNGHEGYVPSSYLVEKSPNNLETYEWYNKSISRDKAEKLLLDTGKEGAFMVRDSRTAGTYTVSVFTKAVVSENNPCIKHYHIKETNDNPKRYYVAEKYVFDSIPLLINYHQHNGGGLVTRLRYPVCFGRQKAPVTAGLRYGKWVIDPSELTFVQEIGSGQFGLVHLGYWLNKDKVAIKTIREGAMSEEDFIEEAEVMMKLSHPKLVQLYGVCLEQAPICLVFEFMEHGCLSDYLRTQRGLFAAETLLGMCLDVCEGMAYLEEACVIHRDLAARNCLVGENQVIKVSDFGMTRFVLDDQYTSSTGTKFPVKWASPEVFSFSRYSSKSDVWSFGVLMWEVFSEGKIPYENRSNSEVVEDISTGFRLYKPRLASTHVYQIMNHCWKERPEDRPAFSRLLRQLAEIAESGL
# [2] = BTK selectivity from IC50 values
# [3] = Z′-Lyte, [ATP] Km app, 1 h incubation, duplicate
# T1 sequence (Q06187 whole entry, the tested form may be a part): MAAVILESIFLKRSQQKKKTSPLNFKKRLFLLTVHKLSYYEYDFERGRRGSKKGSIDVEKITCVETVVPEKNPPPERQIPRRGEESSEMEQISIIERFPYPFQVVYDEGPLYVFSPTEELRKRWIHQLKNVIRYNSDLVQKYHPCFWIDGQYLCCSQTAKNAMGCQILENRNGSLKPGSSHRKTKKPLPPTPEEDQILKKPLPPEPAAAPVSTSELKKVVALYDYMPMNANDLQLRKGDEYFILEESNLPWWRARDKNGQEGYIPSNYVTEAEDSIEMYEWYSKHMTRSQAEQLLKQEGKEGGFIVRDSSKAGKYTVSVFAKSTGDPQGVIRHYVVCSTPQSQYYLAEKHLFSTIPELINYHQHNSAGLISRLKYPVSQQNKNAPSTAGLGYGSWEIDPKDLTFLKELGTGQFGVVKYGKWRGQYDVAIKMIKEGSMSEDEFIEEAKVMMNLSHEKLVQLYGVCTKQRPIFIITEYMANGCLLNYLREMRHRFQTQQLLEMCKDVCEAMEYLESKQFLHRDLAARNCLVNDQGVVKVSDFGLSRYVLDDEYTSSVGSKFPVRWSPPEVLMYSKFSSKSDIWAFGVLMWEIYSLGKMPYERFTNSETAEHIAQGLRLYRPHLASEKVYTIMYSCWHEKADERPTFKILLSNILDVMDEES
# Sequence of BLK (P51451 whole entry): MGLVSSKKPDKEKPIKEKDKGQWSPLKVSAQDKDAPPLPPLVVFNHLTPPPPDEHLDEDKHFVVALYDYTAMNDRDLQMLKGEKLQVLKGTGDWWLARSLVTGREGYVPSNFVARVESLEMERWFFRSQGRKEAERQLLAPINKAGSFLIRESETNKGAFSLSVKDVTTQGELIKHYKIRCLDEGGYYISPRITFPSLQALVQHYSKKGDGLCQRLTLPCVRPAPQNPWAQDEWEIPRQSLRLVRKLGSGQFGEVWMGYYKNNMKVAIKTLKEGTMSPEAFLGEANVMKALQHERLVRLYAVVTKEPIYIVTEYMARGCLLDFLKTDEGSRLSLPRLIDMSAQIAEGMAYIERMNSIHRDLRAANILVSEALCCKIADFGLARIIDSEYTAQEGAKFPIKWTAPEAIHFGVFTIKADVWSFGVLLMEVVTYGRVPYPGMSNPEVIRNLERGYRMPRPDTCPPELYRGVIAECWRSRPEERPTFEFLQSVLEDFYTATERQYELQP
# Sequence of EGFR (ErbB1) (P00533 668-1210 limits assumed): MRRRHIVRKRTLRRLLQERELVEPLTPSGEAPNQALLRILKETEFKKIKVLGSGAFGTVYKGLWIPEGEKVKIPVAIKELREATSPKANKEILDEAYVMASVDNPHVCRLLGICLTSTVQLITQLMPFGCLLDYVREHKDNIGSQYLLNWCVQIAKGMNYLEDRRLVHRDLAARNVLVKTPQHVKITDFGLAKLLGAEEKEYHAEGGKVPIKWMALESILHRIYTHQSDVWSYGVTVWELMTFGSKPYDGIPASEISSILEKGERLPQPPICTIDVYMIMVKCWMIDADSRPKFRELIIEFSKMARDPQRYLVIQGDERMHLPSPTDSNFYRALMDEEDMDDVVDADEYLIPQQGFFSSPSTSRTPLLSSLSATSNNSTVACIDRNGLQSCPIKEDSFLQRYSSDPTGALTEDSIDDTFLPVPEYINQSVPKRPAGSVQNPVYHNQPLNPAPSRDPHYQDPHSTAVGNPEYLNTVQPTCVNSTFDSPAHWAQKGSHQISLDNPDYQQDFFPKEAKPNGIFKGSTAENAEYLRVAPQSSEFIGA
# Sequence of JAK3 (P52333 781-1124 limits assumed): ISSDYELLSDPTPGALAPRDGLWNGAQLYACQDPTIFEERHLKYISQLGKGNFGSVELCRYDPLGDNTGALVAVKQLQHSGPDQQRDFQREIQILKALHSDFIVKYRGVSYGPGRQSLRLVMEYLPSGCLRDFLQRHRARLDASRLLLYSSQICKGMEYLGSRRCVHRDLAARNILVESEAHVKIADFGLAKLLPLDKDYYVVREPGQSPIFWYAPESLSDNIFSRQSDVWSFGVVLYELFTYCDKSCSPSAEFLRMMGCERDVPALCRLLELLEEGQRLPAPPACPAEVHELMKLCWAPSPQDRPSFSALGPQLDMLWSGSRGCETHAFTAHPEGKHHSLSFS
# Sequence of HCK (P08631 whole entry): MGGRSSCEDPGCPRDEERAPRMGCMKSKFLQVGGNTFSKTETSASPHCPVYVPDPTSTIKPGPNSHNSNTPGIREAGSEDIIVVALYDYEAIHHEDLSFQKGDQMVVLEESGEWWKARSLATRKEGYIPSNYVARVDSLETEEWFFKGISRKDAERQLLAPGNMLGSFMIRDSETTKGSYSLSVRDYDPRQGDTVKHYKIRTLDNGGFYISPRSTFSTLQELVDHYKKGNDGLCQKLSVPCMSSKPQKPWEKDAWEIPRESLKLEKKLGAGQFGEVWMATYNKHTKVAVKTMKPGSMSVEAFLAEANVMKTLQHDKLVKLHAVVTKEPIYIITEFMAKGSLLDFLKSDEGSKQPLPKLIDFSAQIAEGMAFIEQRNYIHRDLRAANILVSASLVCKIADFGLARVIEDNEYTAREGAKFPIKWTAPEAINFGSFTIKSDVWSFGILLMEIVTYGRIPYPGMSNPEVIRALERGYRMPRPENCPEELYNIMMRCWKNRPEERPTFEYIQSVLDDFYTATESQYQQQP
# Sequence of MAP2K5 (MEK5) (Q13163 whole entry): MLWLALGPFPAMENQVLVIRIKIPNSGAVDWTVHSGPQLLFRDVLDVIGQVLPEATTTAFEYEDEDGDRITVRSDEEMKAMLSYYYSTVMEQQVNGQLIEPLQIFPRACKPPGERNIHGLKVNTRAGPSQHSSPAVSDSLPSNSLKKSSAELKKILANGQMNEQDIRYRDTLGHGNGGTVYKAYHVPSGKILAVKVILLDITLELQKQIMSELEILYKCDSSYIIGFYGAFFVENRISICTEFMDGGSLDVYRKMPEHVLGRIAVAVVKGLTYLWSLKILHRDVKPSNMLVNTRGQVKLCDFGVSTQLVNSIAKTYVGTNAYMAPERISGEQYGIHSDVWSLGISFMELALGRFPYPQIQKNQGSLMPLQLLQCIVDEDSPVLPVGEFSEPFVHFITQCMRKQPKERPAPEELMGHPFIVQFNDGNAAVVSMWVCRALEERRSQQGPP
# Sequence of ERBB2 (HER2) (P04626 23-1255): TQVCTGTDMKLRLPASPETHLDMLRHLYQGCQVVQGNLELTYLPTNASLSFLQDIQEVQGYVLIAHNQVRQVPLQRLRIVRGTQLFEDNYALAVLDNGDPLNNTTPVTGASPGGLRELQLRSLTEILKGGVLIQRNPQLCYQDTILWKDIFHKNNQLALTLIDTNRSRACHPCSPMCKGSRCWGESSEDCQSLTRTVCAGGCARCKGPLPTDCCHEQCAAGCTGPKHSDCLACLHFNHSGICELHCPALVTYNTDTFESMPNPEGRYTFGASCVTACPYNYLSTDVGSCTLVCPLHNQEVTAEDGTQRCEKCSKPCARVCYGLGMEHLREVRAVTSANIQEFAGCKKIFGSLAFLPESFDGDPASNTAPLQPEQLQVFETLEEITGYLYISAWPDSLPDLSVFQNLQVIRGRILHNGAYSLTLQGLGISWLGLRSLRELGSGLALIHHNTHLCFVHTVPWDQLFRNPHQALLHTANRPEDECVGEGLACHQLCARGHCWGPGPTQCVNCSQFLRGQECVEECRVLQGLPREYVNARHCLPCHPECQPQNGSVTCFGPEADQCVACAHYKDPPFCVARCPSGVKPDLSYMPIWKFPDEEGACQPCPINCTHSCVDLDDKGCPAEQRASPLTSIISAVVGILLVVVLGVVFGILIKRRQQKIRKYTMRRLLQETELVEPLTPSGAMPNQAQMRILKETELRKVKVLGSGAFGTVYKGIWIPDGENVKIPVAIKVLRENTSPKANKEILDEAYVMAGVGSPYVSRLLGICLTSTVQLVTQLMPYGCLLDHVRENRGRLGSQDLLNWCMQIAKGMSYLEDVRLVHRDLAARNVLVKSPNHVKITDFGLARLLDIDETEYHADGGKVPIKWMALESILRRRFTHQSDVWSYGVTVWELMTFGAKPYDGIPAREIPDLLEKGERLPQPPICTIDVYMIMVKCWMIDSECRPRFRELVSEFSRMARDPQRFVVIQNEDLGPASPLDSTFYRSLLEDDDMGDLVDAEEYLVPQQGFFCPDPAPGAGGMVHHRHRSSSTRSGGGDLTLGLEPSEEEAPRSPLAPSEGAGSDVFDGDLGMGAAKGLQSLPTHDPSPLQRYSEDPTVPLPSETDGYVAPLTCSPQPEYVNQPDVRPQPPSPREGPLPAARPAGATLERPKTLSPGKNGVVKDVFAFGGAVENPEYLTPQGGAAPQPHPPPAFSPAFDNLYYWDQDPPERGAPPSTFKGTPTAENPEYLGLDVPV
# Sequence of MAP2K1 (MEK1) S218D S222D (Q02750 whole entry S218D/S222D): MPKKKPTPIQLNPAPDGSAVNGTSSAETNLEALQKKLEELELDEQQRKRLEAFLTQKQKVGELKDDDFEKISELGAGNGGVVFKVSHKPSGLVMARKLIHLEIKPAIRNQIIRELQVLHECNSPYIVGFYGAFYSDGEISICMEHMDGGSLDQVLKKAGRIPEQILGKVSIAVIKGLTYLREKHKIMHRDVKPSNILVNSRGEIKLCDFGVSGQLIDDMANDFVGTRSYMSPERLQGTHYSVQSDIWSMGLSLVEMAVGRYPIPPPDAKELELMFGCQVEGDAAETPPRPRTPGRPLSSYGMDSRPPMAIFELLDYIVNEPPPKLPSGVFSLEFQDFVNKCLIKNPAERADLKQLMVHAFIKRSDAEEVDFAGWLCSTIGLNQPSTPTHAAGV
smiles,measurement,setting,value
C=CC(=O)N1CCCC(n2nc(-c3c(C)cc(Oc4ccccc4)cc3C)c3c(N)ncnc32)C1 (stereo in doubt) [Compound 3],inhibition at 1 µM,TEC,91%
same,inhibition at 1 µM,KIT,1%
same,inhibition at 1 µM,PTK6 (Brk),69%
same,inhibition at 1 µM,ERBB2 (HER2),2%
same,pIC50,EGFR (ErbB1),< 5.00
same,inhibition at 1 µM,EGFR (ErbB1),0%
same,"EGFR, BTK/Kinase",EGFR (ErbB1); [2],> 781 x
same,Hillslope,EGFR (ErbB1); EGFR IC50 curve,0.96
same,EGFR IC50,EGFR (ErbB1); [3],no observable activities
same,inhibition at 0.000495 µM,EGFR (ErbB1); read-out: % Inhibition Point 1,-4%
same,inhibition at 0.00152 µM,EGFR (ErbB1); read-out: % Inhibition Point 1,-1%
same,inhibition at 0.00457 µM,EGFR (ErbB1); read-out: % Inhibition Point 1,-2%
same,inhibition at 0.0137 µM,EGFR (ErbB1); read-out: % Inhibition Point 1,-1%
same,inhibition at 0.0412 µM,EGFR (ErbB1); read-out: % Inhibition Point 1,-6%
same,inhibition at 0.123 µM,EGFR (ErbB1); read-out: % Inhibition Point 1,1%
same,inhibition at 0.37 µM,EGFR (ErbB1); read-out: % Inhibition Point 1,5%
same,inhibition at 1.11 µM,EGFR (ErbB1); read-out: % Inhibition Point 1,10%
same,inhibition at 3.33 µM,EGFR (ErbB1); read-out: % Inhibition Point 1,20%
same,inhibition at 10 µM,EGFR (ErbB1); read-out: % Inhibition Point 1,41%
same,inhibition at 0.000495 µM,EGFR (ErbB1); read-out: % Inhibition Point 2,3%
same,inhibition at 0.00152 µM,EGFR (ErbB1); read-out: % Inhibition Point 2,-2%
same,inhibition at 0.00457 µM,EGFR (ErbB1); read-out: % Inhibition Point 2,1%
same,inhibition at 0.0137 µM,EGFR (ErbB1); read-out: % Inhibition Point 2,0%
same,inhibition at 0.0412 µM,EGFR (ErbB1); read-out: % Inhibition Point 2,-3%
same,inhibition at 0.123 µM,EGFR (ErbB1); read-out: % Inhibition Point 2,-2%
same,inhibition at 0.37 µM,EGFR (ErbB1); read-out: % Inhibition Point 2,1%
same,inhibition at 1.11 µM,EGFR (ErbB1); read-out: % Inhibition Point 2,5%
same,inhibition at 3.33 µM,EGFR (ErbB1); read-out: % Inhibition Point 2,22%
same,inhibition at 10 µM,EGFR (ErbB1); read-out: % Inhibition Point 2,45%
same,kinact/KI,"BLK; 2.5 nM enzyme, 1000 µM ATP, two step fit",35000 M⁻¹ s⁻¹
same,BLK kinact/Ki,"BLK; 2.5 nM enzyme, 1000 µM ATP, two step fit, listed as Dimethyl Analog","35,500 M^-1S^-1"
same,kinact,"BLK; fitted value, two step",0.0021 s⁻¹
same,inhibition at 1 µM,TXK,94%
same,kinact,HCK; read-out: HCK kinact,0.0001 s⁻¹
same,kinact/KI,HCK; read-out: HCK kinact/KI,5960 M⁻¹ s⁻¹
same,pIC50,JAK3,< 5.00
same,inhibition at 1 µM,JAK3,-7%
same,"JAK3, BTK/Kinase",JAK3; [2],> 781 x
same,Hillslope,JAK3; JAK3 IC50 curve,0.86
same,JAK3 IC50,JAK3; [3],no observable activities
same,inhibition at 0.000495 µM,JAK3; read-out: % Inhibition Point 1,4%
same,inhibition at 0.00152 µM,JAK3; read-out: % Inhibition Point 1,-1%
same,inhibition at 0.00457 µM,JAK3; read-out: % Inhibition Point 1,2%
same,inhibition at 0.0137 µM,JAK3; read-out: % Inhibition Point 1,1%
same,inhibition at 0.0412 µM,JAK3; read-out: % Inhibition Point 1,1%
same,inhibition at 0.123 µM,JAK3; read-out: % Inhibition Point 1,2%
same,inhibition at 0.37 µM,JAK3; read-out: % Inhibition Point 1,3%
same,inhibition at 1.11 µM,JAK3; read-out: % Inhibition Point 1,6%
same,inhibition at 3.33 µM,JAK3; read-out: % Inhibition Point 1,17%
same,inhibition at 10 µM,JAK3; read-out: % Inhibition Point 1,32%
same,inhibition at 0.000495 µM,JAK3; read-out: % Inhibition Point 2,1%
same,inhibition at 0.00152 µM,JAK3; read-out: % Inhibition Point 2,-1%
same,inhibition at 0.00457 µM,JAK3; read-out: % Inhibition Point 2,-1%
same,inhibition at 0.0137 µM,JAK3; read-out: % Inhibition Point 2,1%
same,inhibition at 0.0412 µM,JAK3; read-out: % Inhibition Point 2,3%
same,inhibition at 0.123 µM,JAK3; read-out: % Inhibition Point 2,4%
same,inhibition at 0.37 µM,JAK3; read-out: % Inhibition Point 2,0%
same,inhibition at 1.11 µM,JAK3; read-out: % Inhibition Point 2,11%
same,inhibition at 3.33 µM,JAK3; read-out: % Inhibition Point 2,14%
same,inhibition at 10 µM,JAK3; read-out: % Inhibition Point 2,32%
same,inhibition at 1 µM,PDGFRB (PDGFR beta),0%
same,inhibition at 1 µM,RIPK2,29%
same,inhibition at 1 µM,[1],4%
same,inhibition at 1 µM,TTK,-7%
same,NanoBRET HillSlope,BTK-NanoLuc fusion; 30 + 30,-1.148
same,NanoBRET HillSlope,BTK-NanoLuc fusion; 30 + 60,-1.118
same,NanoBRET HillSlope,BTK-NanoLuc fusion; 30 + 90,-1.419
same,NanoBRET HillSlope,BTK-NanoLuc fusion; 30 min Inc,-1.230
same,pIC50,BTK-NanoLuc fusion; 30 min,6.09
same,pIC50,BTK-NanoLuc fusion; 60 min (30 + 30),6.32
same,pIC50,BTK-NanoLuc fusion; 90 min (30 + 60),6.47
same,pIC50,BTK-NanoLuc fusion; 90 min post compound addition,6.50
same,pIC50,BTK-NanoLuc fusion; 120 min (30 + 90),6.50
same,inhibition at 1 µM,MAP2K5 (MEK5),10%
same,kinact,ITK; read-out: ITK kinact,0.0005 s⁻¹
same,kinact/KI,ITK; read-out: ITK kinact/KI,2800 M⁻¹ s⁻¹

# — paper PMC10009787 (ACS Medicinal Chemistry Letters, 2023)
